Laboratory results from patent US20240317749A1, “THERAPEUTIC COMPOUNDS” (priority 2021, published 2024).
≈ marks a conversion by molar mass, not a printed value.

Tests used:
[1] = test system: N. gonorrhoeae ATCC 49226; assay: MIC assay for N. gonorrhoeae, broth microdilution in Todd-Hewitt (TH) broth; format: cell-based; details: Neisseria gonorrhoeae, ATCC49226; Antibacterial Activity against N. gonorrhoeae ATCC 49226 in TH
Description: MIC assays for N. gonorrhoeae were done using the ATCC 49226 strain. The procedure guidelines recommended by the Clinical and Laboratory Standards Institute (CLSI) for the broth microdilution MIC assay were modified by substituting […]. Also, the recommended bacterial inoculum was modified to meet the high inoculum demands needed for N. gonorrhoeae growth. A 96-well plate containing TH broth with 2-fold serial dilution of compounds was inoculated with log-phase bacterial at 2.5×10^7 CFU/mL. The final volume in each well was 200 μL. Each compound was tested in duplicate. The microtiter plates were incubated in an […] environment for 24 hours at 37° C. using the candle jar technique. Then the bacterial growth was tested by reading the plate with a SpectraMax iD5 plate reader (Molecular Devices, Inc.) at 600 nm. The MIC was defined as the lowest compound concentration that inhibited bacteria growth.

[2] = test system: Methicillin-resistant S. aureus (MRSA) ATCC 33591; assay: MIC assay, CLSI broth microdilution in CAMH broth; format: cell-based, Staphylococcus aureus
Procedure: MIC assays for various Gram-negative and Gram-positive strains were conducted in accordance with the CLSI guidelines for broth microdilution. A 96-well plate containing CAMH broth with 2-fold serial dilution of compounds was inoculated with log-phase bacterial at 5×10^5 CFU/mL. The final volume in each well was 100 μL. Each compound was tested in duplicate. The microtiter plates were incubated in an aerobic environment for 18 hours at 37° C. Then the bacterial growth was tested by reading the plate with a SpectraMax iD5 plate reader (Molecular Devices, Inc.) at 600 nm. The MIC was defined as the lowest compound concentration that inhibited bacteria growth. […]

[3] = test system: Methicillin-susceptible S. aureus (MSSA) ATCC 19636; assay: MIC assay, CLSI broth microdilution in CAMH broth; format: cell-based, Staphylococcus aureus
Procedure: (§1) MIC assays for various Gram-negative and Gram-positive strains were conducted in accordance with the CLSI guidelines for broth microdilution. A 96-well plate containing CAMH broth with 2-fold serial dilution of compounds was inoculated with log-phase bacterial at 5×10^5 CFU/mL. The final volume in each well was 100 μL. Each compound was tested in duplicate. The microtiter plates were incubated in an aerobic environment for 18 hours at 37° C. Then the bacterial growth was tested by reading the plate with a SpectraMax iD5 plate reader (Molecular Devices, Inc.) at 600 nm. The MIC was defined as the lowest compound concentration that inhibited bacteria growth.
(§2) The following Gram-negative and Gram-positive strains were used in the aerobic MIC procedure: • P. aeruginosa ATCC 27853 • A. baumannii ATCC 19606 • E. coli ATCC 25922 • E. coli W4573 • E. coli N43 • K. pneumoniae ATCC 10031 • K. pneumoniae ATCC 13883 • S. sonnei ATCC 29930 • P. mirabilis ATCC 29906 • Methicillin-susceptible S. aureus (MSSA) ATCC 19636 • Methicillin-resistant S. aureus (MRSA) ATCC 33951

P. mirabilis ATCC 29906 = assay: MIC assay, CLSI broth microdilution in CAMH broth; format: cell-based, Proteus mirabilis
Procedure: as §1, §2

Row | Compound | MIC [1] | further results
1 | Nc1nc(N)c2ccc3c(ccn3Cc3ccccc3)c2n1 [Example 1, 7-benzyl-7H-pyrrolo[2,3-h]quinazoline-2,4-diamine] | 8 µg/mL (≈ 27.6 µM) | –
2 | N#Cc1ccc(Cn2ccc3c4nc(N)nc(N)c4ccc32)cc1 [Example 5, 4-((2,4-diamino-7H-pyrrolo[2,3-h]quinazolin-7-yl)methyl)benzonitrile] | 16 µg/mL (≈ 50.9 µM) | –
3 | Nc1nc(N)c2ccc3c(ccn3Cc3cccc(C(F)(F)F)c3)c2n1 [Example 8, 7-(3-(trifluoromethyl)benzyl)-7H-pyrrolo[2,3-h]quinazoline-2,4-diamine] | 8 µg/mL (≈ 22.4 µM) | –
4 | Nc1nc(N)c2ccc3c(ccn3Cc3ccc(OC(F)(F)F)cc3)c2n1 [Example 9, 7-(4-(trifluoromethoxy)benzyl)-7H-pyrrolo[2,3-h]quinazoline-2,4-diamine] | 16 µg/mL (≈ 42.9 µM) | –
5 | CC(C)c1ccc(Cn2ccc3c4nc(N)nc(N)c4ccc32)cc1 [Example 10, 7-(4-isopropylbenzyl)-7H-pyrrolo[2,3-h]quinazoline-2,4-diamine] | 4 µg/mL (≈ 12.1 µM) | –
6 | Nc1nc(N)c2ccc3c(ccn3Cc3ccc(C(F)(F)F)c(F)c3)c2n1 [Example 11, 7-(3-fluoro-4-(trifluoromethyl)benzyl)-7H-pyrrolo[2,3-h]quinazoline-2,4-diamine] | 4 µg/mL (≈ 10.7 µM) | –
7 | Nc1nc(N)c2ccc3c(ccn3Cc3cc(Cl)ccc3F)c2n1 [Example 12, 7-(5-chloro-2-fluorobenzyl)-7H-pyrrolo[2,3-h]quinazoline-2,4-diamine] | 4 µg/mL (≈ 11.7 µM) | –
8 | Nc1nc(N)c2ccc3c(ccn3Cc3cc(Cl)ccc3Cl)c2n1 [Example 13, 7-(2,5-dichlorobenzyl)-7H-pyrrolo[2,3-h]quinazoline-2,4-diamine] | 16 µg/mL (≈ 44.7 µM) | –
9 | COc1cc(Cn2ccc3c4nc(N)nc(N)c4ccc32)cc(OC)c1 [Example 14, 7-(3,5-dimethoxybenzyl)-7H-pyrrolo[2,3-h]quinazoline-2,4-diamine] | > 64 µg/mL | –
10 | Nc1nc(N)c2ccc3c(ccn3Cc3ccc(Oc4ccccc4)cc3)c2n1 [Example 15, 7-(4-phenoxybenzyl)-7H-pyrrolo[2,3-h]quinazoline-2,4-diamine] | 8 µg/mL (≈ 21 µM) | –
11 | Nc1nc(N)c2ccc3c(ccn3Cc3ccc(-c4ccccc4)cc3)c2n1 [Example 17, 7-([1,1′-biphenyl]-4-ylmethyl)-7H-pyrrolo[2,3-h]quinazoline-2,4-diamine] | 8 µg/mL (≈ 21.9 µM) | –
12 | Nc1nc(N)c2ccc3c(ccn3Cc3cccc(-c4ccccc4)c3)c2n1 [Example 18, 7-([1,1′-biphenyl]-3-ylmethyl)-7H-pyrrolo[2,3-h]quinazoline-2,4-diamine] | 16 µg/mL (≈ 43.8 µM) | –
13 | N#Cc1ccccc1-c1ccc(Cn2ccc3c4nc(N)nc(N)c4ccc32)cc1 [Example 19, 4′-((2,4-diamino-7H-pyrrolo[2,3-h]quinazolin-7-yl)methyl)-[1,1′-biphenyl]-2-carbonitrile] | 0.25 µg/mL (≈ 0.64 µM) | –
14 | COC(=O)c1ccc(-c2ccc(Cn3ccc4c5nc(N)nc(N)c5ccc43)cc2)cc1 [Example 20, methyl 4′-((2,4-diamino-7H-pyrrolo[2,3-h]quinazolin-7-yl)methyl)-[1,1′-biphenyl]-4-carboxylate] | > 32 µg/mL | –
15 | Nc1nc(N)c2ccc3c(ccn3Cc3ccc(Br)cn3)c2n1 [Example 22, 7-((5-bromopyridin-2-yl)methyl)-7H-pyrrolo[2,3-h]quinazoline-2,4-diamine] | 16 µg/mL (≈ 43.3 µM) | –
16 | Cn1c(Cn2ccc3c4nc(N)nc(N)c4ccc32)nc2ccccc21 [Example 23, 7-((1-methyl-1H-benzo[d]midazole-2-yl)methyl)-7H-pyrrolo[2,3-h]quinazoline-2,4-diamine] | > 64 µg/mL | –
17 | Nc1nc(N)c2ccc3c(ccn3Cc3nc(-c4ccccc4)cs3)c2n1 [Example 24, 7-((4-phenylthiazol-2-yl)methyl)-7H-pyrrolo[2,3-h]quinazoline-2,4-diamine] | 4 µg/mL (≈ 10.7 µM) | –
18 | CC(C)=CCn1ccc2c3nc(N)nc(N)c3ccc21 [Example 25, 7-(3-methylbut-2-en-1-yl)-7H-pyrrolo[2,3-h]quinazoline-2,4-diamine] | 4 µg/mL (≈ 15 µM) | –
19 | Nc1nc(N)c2ccc3c(ccn3CC3CC3)c2n1 [Example 28, 7-(cyclopropylmethyl)-7H-pyrrolo[2,3-h]quinazoline-2,4-diamine] | 8 µg/mL (≈ 31.6 µM) | –
20 | Nc1nc(N)c2ccc3c(ccn3C(=O)c3ccccc3)c2n1 [Example 29, (2,4-diamino-7H-pyrrolo[2,3-h]quinazolin-7-yl)(phenyl)methanone] | 32 µg/mL (≈ 105 µM) | –
21 | Cc1cc2c3nc(N)nc(N)c3ccc2n1Cc1cccc(Br)c1 [Example 30, 7-(3-bromobenzyl)-8-methyl-7H-pyrrolo[2,3-h]quinazoline-2,4-diamine] | 16 µg/mL (≈ 41.9 µM) | –
22 | Cc1cc2c3nc(N)nc(N)c3ccc2n1Cc1ccc(-c2ccccc2-c2nnn[nH]2)cc1 [Example 32, 7-((2′-(1H-tetrazol-5-yl)-[1,1′-biphenyl]-4-yl)methyl)-8-methyl-7H-pyrrolo[2,3-h]quinazoline-2,4-diamine] | > 64 µg/mL | –
23 | Cc1cc2c3nc(N)nc(N)c3ccc2n1Cc1nc2ccccc2s1 [Example 33, 7-(benzo[d]thiazol-2-ylmethyl)-8-methyl-7H-pyrrolo[2,3-h]quinazoline-2,4-diamine] | 8 µg/mL (≈ 22.2 µM) | –
24 | N#Cc1ccccc1-c1ccc(Cn2ccc3c4nc(N)nc(N)c4ccc32)c(F)c1F [Example 40, 4′-((2,4-diamino-7H-pyrrolo[2,3-h]quinazolin-7-yl)methyl)-2′,3′-difluoro-[1,1′-biphenyl]-2-carbonitrile] | – | Intrinsic MIC in CAMH [2]: ≤0.063¤; Intrinsic MIC in CAMH [3]: 0.25¤; Intrinsic MIC in CAMH (P. mirabilis ATCC 29906): >64¤
25 | N#Cc1ccccc1-c1ccc(Cn2ccc3c4nc(N)nc(N)c4c(Br)cc32)cc1F [Example 46, 4′-((2,4-diamino-5-bromo-7H-pyrrolo[2,3-h]quinazolin-7-yl)methyl)-2′-fluoro-[1,1′-biphenyl]-2-carbonitrile] | – | Intrinsic MIC in CAMH [2]: 2¤; Intrinsic MIC in CAMH [3]: 4¤; Intrinsic MIC in CAMH (P. mirabilis ATCC 29906): >64¤
26 | Nc1nc(N)c2c(Br)cc3c(ccn3Cc3cccc(Br)c3)c2n1 [Example 47, 5-bromo-7-(3-bromobenzyl)-7H-pyrrolo[2,3-h]quinazoline-2,4-diamine] | – | Intrinsic MIC in CAMH [2]: 4¤; Intrinsic MIC in CAMH [3]: 4¤; Intrinsic MIC in CAMH (P. mirabilis ATCC 29906): 8¤
27 | Nc1nc(NCc2cccc(Br)c2)nc2c1c(Br)cc1c2ccn1Cc1cccc(Br)c1 [Example 48, 5-bromo-N^2,7-bis(3-bromobenzyl)-7H-pyrrolo[2,3-h]quinazoline-2,4-diamine] | – | Intrinsic MIC in CAMH [2]: >64¤; Intrinsic MIC in CAMH [3]: >64¤; Intrinsic MIC in CAMH (P. mirabilis ATCC 29906): >64¤
28 | N#Cc1ccccc1-c1ccc(Cn2ccc3c4nc(N)nc(N)c4cnc32)cc1F [Example 51, 4′-((2,4-diamino-7H-pyrrolo[3′,2′:5,6]pyrido[4,3-d]pyrimidin-7-yl)methyl)-2′-fluoro-[1,1′-biphenyl]-2-carbonitrile] | – | Intrinsic MIC in CAMH [2]: ≤0.063¤; Intrinsic MIC in CAMH [3]: ≤0.063¤; Intrinsic MIC in CAMH (P. mirabilis ATCC 29906): >64¤
29 | CN[C@H](CC(C)C)C(=O)N[C@H]1C(=O)N[C@@H](CC(N)=O)C(=O)N[C@H]2C(=O)N[C@H]3C(=O)N[C@H](C(=O)N[C@H](C(=O)O)c4cc(O)cc(O)c4-c4cc3ccc4O)[C@H](O)c3ccc(c(Cl)c3)Oc3cc2cc(c3O[C@@H]2O[C@H](CO)[C@@H](O)[C@H](O)[C@H]2O[C@H]2C[C@](C)(N)[C@H](O)[C@H](C)O2)Oc2ccc(cc2Cl)[C@H]1O [VAN, reference compound] | – | Intrinsic MIC in CAMH [2]: 2¤; Intrinsic MIC in CAMH [3]: 2¤
